According to patent US20180087079A1, “METHODS OF USING CELL-CYCLE INHIBITORS TO MODULATE ONE OR MORE PROPERTIES OF A CELL CULTURE” (AMGEN INC., priority 2013, published 2018):

Legend:
[1] = test system: transfected CHO cells expressing recombinant human monoclonal antibody (cell line 1); experiment: 24-deep well culture, cell line 1: VCD, viability, titer, qP; format: cell-based, Chinese hamster; settings: for Titer / VCD / Viability / qP: Cell Line 1; for effect on viability / growth arrest: summary of Table 2
Method: Transfected CHO cells expressing a recombinant human monoclonal antibody (mAb) are cultured in 24-deep well plates with seeding density at 1×10^7/mL for five days. At certain time periods, samples of the cultures are taken and evaluated for viable cell density (VCD; expressed in 10^6 cells/mL); percent viability (as determined by trypan blue exclusion); titer of recombinant protein (expressed in grams of protein per liter of culture, or g/L, as determined by Protein A affinity HPLC); qP, or specific productivity (expressed in picograms of recombinant protein per cell per day, or pg/c/d), the presence or absence of high molecular weight substances (usually an indicator of protein aggregation; expressed as % of the total protein); and the relative percentage of Mannose 5, a major intermediate glyco-form that attaches to N297 of the mAb. N-linked glycosylation has an impact on the tertiary structure of the antibody and may affect Fc mediated antibody effector functions. The majority of the human Fc glycans are complex biantennary structures with galactose as the prevalent terminal sugar. Immature glyco-forms, such as high-mannose glycol-forms (Man5-9), are of concern due to potential higher plasma clearance rate (as compared to the clearance rate of complex glycan linked mAbs).
Compounds are further evaluated essentially as described in Example 2 herein. Briefly, transfected CHO cells expressing recombinant human monoclonal antibody (mAb; two different cell lines expressing two different mAb, referred to as cell line 1 and cell line 2) are cultured in 24-deep well plates in the presence or absence of the compounds. At specified time points, samples of the cultures are taken and evaluated for viable cell density (VCD; expressed in 10^6 cells/mL); percent viability (as determined by any method known in the art); titer of recombinant protein (expressed in grams of protein per liter of culture, or g/L, as determined by Protein A affinity HPLC); qP, or specific productivity (expressed in picograms of recombinant protein per cell per day, or pg/c/d). Additional parameters measure include the presence or absence of high molecular weight substances (usually an indicator of protein aggregation; expressed as % of the total protein); and the relative percentage of Mannose 5. For comparison purposes, Compounds A and B, which had been previously tested, were tested again.

CDK4/Cyclin D1 = biological target: T1, CDK4/Cyclin D1 (Homo sapiens, UniProt P11802); experiment: CDK4 filtration kinase assay; format: biochemical; settings: CDK4/Cyclin D1, Rb fragment substrate, [33P]-ATP
T1 construct: purchased Cell Signaling Technology
T1 sequence (P11802 whole entry, species assumed, the tested form may be a part): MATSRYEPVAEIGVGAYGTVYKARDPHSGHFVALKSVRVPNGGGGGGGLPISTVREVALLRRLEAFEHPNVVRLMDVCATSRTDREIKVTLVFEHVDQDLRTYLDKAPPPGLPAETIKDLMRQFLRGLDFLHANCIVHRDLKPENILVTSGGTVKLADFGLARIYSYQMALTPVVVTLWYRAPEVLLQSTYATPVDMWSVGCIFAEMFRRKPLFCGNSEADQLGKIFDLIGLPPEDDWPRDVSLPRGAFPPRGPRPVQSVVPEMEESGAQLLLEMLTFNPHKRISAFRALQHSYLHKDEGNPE
T1 sequence (P24385 whole entry partner, species assumed, the tested form may be a part): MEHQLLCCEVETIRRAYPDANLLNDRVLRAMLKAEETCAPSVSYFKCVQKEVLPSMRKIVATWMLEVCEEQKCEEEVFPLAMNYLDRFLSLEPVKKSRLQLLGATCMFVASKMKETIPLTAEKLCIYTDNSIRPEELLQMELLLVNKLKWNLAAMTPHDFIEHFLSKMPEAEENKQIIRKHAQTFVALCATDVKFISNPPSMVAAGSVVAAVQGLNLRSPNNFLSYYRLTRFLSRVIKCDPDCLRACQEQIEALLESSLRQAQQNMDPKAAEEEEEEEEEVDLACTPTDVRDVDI
Method: The CDK4 inhibitory activity of the cell cycle inhibitors was determined with a filtration kinase assay. The compounds, kinase and substrate diluted in the kinase buffer (20 mM Tris, pH7.4, 50 mM NaCl, 1 mM DTT, 0.1% BSA) were sequentially added to a 96-well Multiscreen HTS filtration plate (Millipore). The final 100 μL reaction mixture in each well contained 0.3 μg of CDK4/Cyclin D1 (Cell Signaling Technology), 1 μg of Rb fragment (aa773-928, Millipore) for the CDK4 assay and 1 μCi of [^33P]-ATP. The mixture was incubated at room temperature for 1 hour. The proteins in the reaction were then precipitated and washed with cold TCA solution using an aspiration/filtration vacuum system. The plates were dried at room temperature, and the retained radioactivity was measured by scintillation counting. IC50 values of the compounds in the above assays were determined by non-linear regression analysis using Prism (GraphPad Software).

Colo205 = experiment: [14C]-thymidine incorporation cell proliferation inhibition assay; format: cell-based; settings: Homo sapiens, COLO 205, 72 hour incubation
Method: The cell proliferation inhibition potency of the cell cycle inhibitors was determined by using a [^14C]-thymidine incorporation assay. Exponentially growing cells (Colo205) were seeded in a 96-well Cytostar T plate (GE Healthcare Biosciences) at a density of 5×10^3 cells/well and incubated overnight. Serially diluted compounds and 0.1 μCi of [^14C]-thymidine (GE Healthcare Biosciences) were added to each well on the following day. After 72 hour incubation, isotope incorporation was determined with a β plate counter (Wallac). IC50 values of the compounds in the above assays were determined by non-linear regression analysis using Prism (GraphPad Software).

CN(C)C1CCN(c2ccc(Nc3ncc4c5ccncc5n(C5CCCC5)c4n3)nn2)CC1 [Compound C, 9-cyclopentyl-N-(6-(4-(dimethylamino)piperidin-1-yl)pyridazin-3-yl)-9H-pyrido[4′,3′:4,5]pyrrolo[2,3-d]pyrimidin-2-amine]
Titer ([1]; 10 microM, D 1): 0.48 g/L | VCD ([1]; 10 microM, D 1): 10.72 e6/mL | Viability ([1]; 10 microM, D 1): 94.37% | qP ([1]; 10 microM, D 1): 44.45 pg/c/d | Titer ([1]; 10 microM, D 2): 0.70 g/L | VCD ([1]; 10 microM, D 2): 8.77 e6/mL | Viability ([1]; 10 microM, D 2): 82.97% | qP ([1]; 10 microM, D 2): 79.79 pg/c/d | Titer ([1]; 10 microM, D 3): 0.94 g/L | VCD ([1]; 10 microM, D 3): 10.83 e6/mL | Viability ([1]; 10 microM, D 3): 84.46% | qP ([1]; 10 microM, D 3): 86.83 pg/c/d | Titer ([1]; 10 microM, D 4): 1.21 g/L | VCD ([1]; 10 microM, D 4): 12.18 e6/mL | Viability ([1]; 10 microM, D 4): 78.70% | qP ([1]; 10 microM, D 4): 99.64 pg/c/d | Titer ([1]; 20 microM, D 1): 0.48 g/L | VCD ([1]; 20 microM, D 1): 11.00 e6/mL | Viability ([1]; 20 microM, D 1): 94.55% | qP ([1]; 20 microM, D 1): 43.31 pg/c/d | Titer ([1]; 20 microM, D 2): 0.67 g/L | VCD ([1]; 20 microM, D 2): 8.28 e6/mL | Viability ([1]; 20 microM, D 2): 80.00% | qP ([1]; 20 microM, D 2): 80.51 pg/c/d | Titer ([1]; 20 microM, D 3): 0.85 g/L | VCD ([1]; 20 microM, D 3): 9.22 e6/mL | Viability ([1]; 20 microM, D 3): 78.87% | qP ([1]; 20 microM, D 3): 91.80 pg/c/d | Titer ([1]; 20 microM, D 4): 1.10 g/L | VCD ([1]; 20 microM, D 4): 10.18 e6/mL | Viability ([1]; 20 microM, D 4): 74.13% | qP ([1]; 20 microM, D 4): 108.01 pg/c/d | effect on viability [1]: greater (but still modest) decreases in viability | growth arrest [1]: more sustained growth arrest | IC50 (CDK4/Cyclin D1): 3.17 nM | IC50 (Colo205): 17.1 nM

CC1CCC(n2c3cnccc3c3cnc(Nc4ccc(N5CCNC(C)C5)nn4)nc32)CC1 (stereo not drawn) [Compound D, 9-(4-methylcyclohexyl)-N-(6-(3-methylpiperazin-1-yl)pyridazin-3-yl)-9H-pyrido[4′,3′:4,5]pyrrolo[2,3-d]pyrimidin-2-amine]
Titer ([1]; 2.5 microM, D 1): 0.49 g/L | VCD ([1]; 2.5 microM, D 1): 11.85 e6/mL | Viability ([1]; 2.5 microM, D 1): 95.50% | qP ([1]; 2.5 microM, D 1): 41.37 pg/c/d | Titer ([1]; 2.5 microM, D 2): 0.73 g/L | VCD ([1]; 2.5 microM, D 2): 10.72 e6/mL | Viability ([1]; 2.5 microM, D 2): 87.30% | qP ([1]; 2.5 microM, D 2): 67.79 pg/c/d | Titer ([1]; 2.5 microM, D 3): 0.98 g/L | VCD ([1]; 2.5 microM, D 3): 11.11 e6/mL | Viability ([1]; 2.5 microM, D 3): 84.83% | qP ([1]; 2.5 microM, D 3): 87.94 pg/c/d | Titer ([1]; 2.5 microM, D 4): 1.27 g/L | VCD ([1]; 2.5 microM, D 4): 14.71 e6/mL | Viability ([1]; 2.5 microM, D 4): 82.00% | qP ([1]; 2.5 microM, D 4): 86.32 pg/c/d | Titer ([1]; 5 microM, D 1): 0.49 g/L | VCD ([1]; 5 microM, D 1): 11.76 e6/mL | Viability ([1]; 5 microM, D 1): 95.92% | qP ([1]; 5 microM, D 1): 41.95 pg/c/d | Titer ([1]; 5 microM, D 2): 0.70 g/L | VCD ([1]; 5 microM, D 2): 10.17 e6/mL | Viability ([1]; 5 microM, D 2): 86.10% | qP ([1]; 5 microM, D 2): 69.17 pg/c/d | Titer ([1]; 5 microM, D 3): 0.87 g/L | VCD ([1]; 5 microM, D 3): 9.71 e6/mL | Viability ([1]; 5 microM, D 3): 79.43% | qP ([1]; 5 microM, D 3): 89.92 pg/c/d | Titer ([1]; 5 microM, D 4): 1.11 g/L | VCD ([1]; 5 microM, D 4): 11.94 e6/mL | Viability ([1]; 5 microM, D 4): 76.30% | qP ([1]; 5 microM, D 4): 92.69 pg/c/d | Titer ([1]; 10 microM, D 1): 0.49 g/L | VCD ([1]; 10 microM, D 1): 11.35 e6/mL | Viability ([1]; 10 microM, D 1): 94.69% | qP ([1]; 10 microM, D 1): 43.16 pg/c/d | Titer ([1]; 10 microM, D 2): 0.67 g/L | VCD ([1]; 10 microM, D 2): 9.65 e6/mL | Viability ([1]; 10 microM, D 2): 82.20% | qP ([1]; 10 microM, D 2): 69.81 pg/c/d | Titer ([1]; 10 microM, D 3): 0.86 g/L | VCD ([1]; 10 microM, D 3): 9.31 e6/mL | Viability ([1]; 10 microM, D 3): 76.69% | qP ([1]; 10 microM, D 3): 92.01 pg/c/d | Titer ([1]; 10 microM, D 4): 0.99 g/L | VCD ([1]; 10 microM, D 4): 10.04 e6/mL | Viability ([1]; 10 microM, D 4): 70.89% | qP ([1]; 10 microM, D 4): 98.63 pg/c/d | effect on viability [1]: minimal effects on viability | growth arrest [1]: reasonably sustained growth arrest | IC50 (CDK4/Cyclin D1): 1.86 nM | IC50 (Colo205): 29.9 nM

CC1(C)C=CC2(CC1)c1cnccc1-c1cnc(Nc3ccc(N4CCNCC4)nn3)nc12 (stereo not drawn) [Compound K, 4,4-dimethyl-N-(6-(piperazin-1-yl)pyridazin-3-yl)spiro[cyclohex[2]ene-1,9′-pyrido[4′,3′:3,4]cyclopenta[1,2-d]pyrimidin]-2′-amine]
Titer ([1]; 1.25 microM, D 1): 0.48 g/L | VCD ([1]; 1.25 microM, D 1): 11.87 e6/mL | Viability ([1]; 1.25 microM, D 1): 95.72% | qP ([1]; 1.25 microM, D 1): 40.15 pg/c/d | Titer ([1]; 1.25 microM, D 2): 0.72 g/L | VCD ([1]; 1.25 microM, D 2): 13.04 e6/mL | Viability ([1]; 1.25 microM, D 2): 92.13% | qP ([1]; 1.25 microM, D 2): 54.94 pg/c/d | Titer ([1]; 1.25 microM, D 3): 1.01 g/L | VCD ([1]; 1.25 microM, D 3): 16.39 e6/mL | Viability ([1]; 1.25 microM, D 3): 90.36% | qP ([1]; 1.25 microM, D 3): 61.61 pg/c/d | Titer ([1]; 1.25 microM, D 4): 1.07 g/L | VCD ([1]; 1.25 microM, D 4): 22.55 e6/mL | Viability ([1]; 1.25 microM, D 4): 91.21% | qP ([1]; 1.25 microM, D 4): 47.60 pg/c/d | Titer ([1]; 2.5 microM, D 1): 0.48 g/L | VCD ([1]; 2.5 microM, D 1): 11.77 e6/mL | Viability ([1]; 2.5 microM, D 1): 96.38% | qP ([1]; 2.5 microM, D 1): 40.78 pg/c/d | Titer ([1]; 2.5 microM, D 2): 0.72 g/L | VCD ([1]; 2.5 microM, D 2): 12.07 e6/mL | Viability ([1]; 2.5 microM, D 2): 90.97% | qP ([1]; 2.5 microM, D 2): 59.38 pg/c/d | Titer ([1]; 2.5 microM, D 3): 1.05 g/L | VCD ([1]; 2.5 microM, D 3): 15.31 e6/mL | Viability ([1]; 2.5 microM, D 3): 89.25% | qP ([1]; 2.5 microM, D 3): 68.37 pg/c/d | Titer ([1]; 2.5 microM, D 4): 1.22 g/L | VCD ([1]; 2.5 microM, D 4): 21.06 e6/mL | Viability ([1]; 2.5 microM, D 4): 89.80% | qP ([1]; 2.5 microM, D 4): 58.10 pg/c/d
